From patent US7071178B2, “Use of vitamin D-derivatives in the treatment of osteoporosis and related bone disorders, as well as novel vitamin D3-derivatives” (Leo Pharmaceutical Products, Ltd., priority 2000, dated 2006)

How the values were obtained:
[1] = test system: OVX rats; experiment: OVX rat model on osteoporosis: serum calcium; assay type: in vivo; parameters: key to Effect on serum calcium vs 1,25D3: <: less effect than the reference dose of 1,25D3 (0.25 ug/kg); <=: less or the same effect as the reference dose of 1,25D3 (0.25 ug/kg); =: same effect as the reference dose of 1,25D3 (0.25 ug/kg); =>: same or better effect as the reference dose of 1,25D3 (0.25 ug/kg); >: better effect than the reference dose of 1,25D3 (0.25 ug/kg); settings: for Effect on serum calcium vs 1,25D3 / Effect on serum calcium vs Ovx contr: oral 28 days
Text: (§1) Pharmacological Methods—OVX Rat Model on Osteoporosis
(§2) To study bone anabolic properties and the effects of the vitamin D analogues of the present invention in preventing or treating demineralisation of the skeleton in vivo, a 4 weeks OVX rat model was used:
(§3) An ovariectomized rat model (OVX model), orally dosed for 28 days is useful for screening of vitamin D analogues. In this model ovariectomy produces alterations in the cancellous network identical to those seen in the human skeleton during ageing and the menopause. Besides this the model and the following analyses can be performed under very standardised conditions. 1α,25(OH)2D3 is used as a reference compound.
(§4) Female Sprague Dawley rats weighing approximately 130 g (40–45 days old) were purchased from MB, Ejby, Denmark. The animals were fed a commercial diet and allowed free access to food and drinking water. The animals were split into groups receiving differential treatment.
(§5) The animals were anaesthetised and ovariectomized through a dorsal incision.
(§6) Treatment of OVX animals was started 2 weeks after ovariectomy.
(§7) The animals were dosed orally for 28 days. The oral dosage was by gavage 0.1 ml/100 g bodyweight. The bodyweight of each animal was recorded every day prior to oral dosing. On day 7, 14, 21 and 28 the animals were housed separately for 24 hours in metabolic cages for collection of urine. Urine was frozen at −20° C. for later calcium measurement.
At day 28 the animals were anaesthetised and 2 ml of blood was obtained either by heart puncture or from the orbital vein, after this the animals were euthanized by CO2. The serum fraction was then removed and frozen at −20° C. for later measurement of calcium, phosphorous and creatinine.
(§8) Effect of Compound 145 compared to the reference dose of 1,25(OH)2D3 (1,25D3) (0.25 μg/kg) and compared to the OVX control group (shown in %) are shown in Tables 1 to 4.

[2] = test system: OVX rats; experiment: OVX rat model on osteoporosis: urine calcium; assay type: in vivo; parameters: key to Effect on urine calcium vs 1,25D3: <: less effect than the reference dose of 1,25D3 (0.25 ug/kg); <=: less or the same effect as the reference dose of 1,25D3 (0.25 ug/kg); =: same effect as the reference dose of 1,25D3 (0.25 ug/kg); =>: same or better effect as the reference dose of 1,25D3 (0.25 ug/kg); >: better effect than the reference dose of 1,25D3 (0.25 ug/kg); settings: oral 28 days
Text: as §1, §2, §3, §4, §5, §6, §7, §8

Structure (SMILES): C=C1C(=CC=C2CCCC3(C)C2CCC3C(C)CSc2ccc(C(C)(C)O)cc2)CC(O)CC1O [Compound 145, 1(S),3(R)-Dihydroxy-20(R)-(4-((1-hydroxy-1-methyl)ethyl)phenylthiomethyl)-9,10-seco-pregna-5(Z),7(E),10(19)-triene]
- Effect on serum calcium vs 1,25D3 ([1]; 1 μg/kg, MTR/16): No
- Effect on serum calcium vs Ovx contr ([1]; 1 μg/kg, MTR/16): 0%
- Effect on serum calcium vs 1,25D3 ([1]; 10 μg/kg, MTR/16): No
- Effect on serum calcium vs Ovx contr ([1]; 10 μg/kg, MTR/16): 3%
- Effect on serum calcium vs 1,25D3 ([1]; 10 μg/kg, MTR/23): <
- Effect on serum calcium vs Ovx contr ([1]; 10 μg/kg, MTR/23): 6%
- Effect on serum calcium vs 1,25D3 ([1]; 25 μg/kg, MTR/27): <
- Effect on serum calcium vs Ovx contr ([1]; 25 μg/kg, MTR/27): 11%
- Effect on serum calcium vs 1,25D3 ([1]; 50 μg/kg, MTR/23): No
- Effect on serum calcium vs Ovx contr ([1]; 50 μg/kg, MTR/23): 2%
- Effect on serum calcium vs 1,25D3 ([1]; 50 μg/kg, MTR/27): =
- Effect on serum calcium vs Ovx contr ([1]; 50 μg/kg, MTR/27): 18%
- Effect on serum calcium vs 1,25D3 ([1]; 75 μg/kg, MTR/27): =
- Effect on serum calcium vs Ovx contr ([1]; 75 μg/kg, MTR/27): 20%
- Effect on serum calcium vs 1,25D3 ([1]; 100 μg/kg, MTR/23): No
- Effect on serum calcium vs Ovx contr ([1]; 100 μg/kg, MTR/23): −5%
- calcaemic effect (adverse effect) compared to 1,25D3 ([1]; summary of Tables 1 to 4): reduced
- Effect on urine calcium vs 1,25D3 ([2]; 1 μg/kg, MTR/16): No
- Effect on urine calcium vs Ovx contr ([2]; 1 μg/kg, MTR/16): −23%
- Effect on urine calcium vs 1,25D3 ([2]; 10 μg/kg, MTR/16): <<<
- Effect on urine calcium vs Ovx contr ([2]; 10 μg/kg, MTR/16): 104%
- Effect on urine calcium vs 1,25D3 ([2]; 10 μg/kg, MTR/23): <<<
- Effect on urine calcium vs Ovx contr ([2]; 10 μg/kg, MTR/23): 45%
- Effect on urine calcium vs 1,25D3 ([2]; 25 μg/kg, MTR/27): <<
- Effect on urine calcium vs Ovx contr ([2]; 25 μg/kg, MTR/27): 155%
- Effect on urine calcium vs 1,25D3 ([2]; 50 μg/kg, MTR/23): <=
- Effect on urine calcium vs Ovx contr ([2]; 50 μg/kg, MTR/23): 373%
- Effect on urine calcium vs 1,25D3 ([2]; 50 μg/kg, MTR/27): =
- Effect on urine calcium vs Ovx contr ([2]; 50 μg/kg, MTR/27): 750%
- Effect on urine calcium vs 1,25D3 ([2]; 75 μg/kg, MTR/27): >=
- Effect on urine calcium vs Ovx contr ([2]; 75 μg/kg, MTR/27): 777%
- Effect on urine calcium vs 1,25D3 ([2]; 100 μg/kg, MTR/23): <=
- Effect on urine calcium vs Ovx contr ([2]; 100 μg/kg, MTR/23): 463%
